Experimental data from the supplement of paper PMC10307832.

Columns and labels:
Experiment in all cases: relative viability (nuclei count vs DMSO), 5 days (fraction); higher = more cells survive
[1] = compound: CS(=O)(=O)c1ccc(C(=O)Nc2ccc(Cl)c(-c3ccccn3)c2)c(Cl)c1 [Vismodegib] + CC(C)C[C@H](NC(=O)[C@H](Cc1ccccc1)NC(=O)c1cnccn1)B(O)O [Bortezomib] (partner 0.002 µM)
In short: (§1)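 Lung cancer cell lines were pin-tool dosed in 1536-well plates on the day after seeding, with either a lone drug or a fixed anchor-drug dose plus five library-drug doses (not always all listed) in √10 steps. Nuclei were counted on 4× images after 5 days. Relative viability is the ratio of treated-well to vehicle-well nuclei counts, with each value a median of duplicate plates.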

[2] = compound: CS(=O)(=O)c1ccc(C(=O)Nc2ccc(Cl)c(-c3ccccn3)c2)c(Cl)c1 [Vismodegib] + Cc1cc(Nc2cc(N3CCN(C)CC3)nc(Sc3ccc(NC(=O)C4CC4)cc3)n2)n[nH]1 [Tozasertib] (partner 0.1 µM)
In short: as §1

[3] = compound: N#CC[C@H](C1CCCC1)n1cc(-c2ncnc3[nH]ccc23)cn1 [Ruxolitinib] + CC1(C)CCC(c2ccc(Cl)cc2)=C(CN2CCN(c3ccc(C(=O)NS(=O)(=O)c4ccc(N[C@H](CCN5CCOCC5)CSc5ccccc5)c(S(=O)(=O)C(F)(F)F)c4)cc3)CC2)C1 [Navitoclax] (partner 0.5 µM)
In short: as §1

[4] = compound: N#CC[C@H](C1CCCC1)n1cc(-c2ncnc3[nH]ccc23)cn1 [Ruxolitinib] + Nc1nc2[nH]cc(CCc3ccc(C(=O)N[C@@H](CCC(=O)O)C(=O)O)cc3)c2c(=O)[nH]1 [Pemetrexed] (partner 0.2 µM)
In short: as §1

Cell Line	relative viability ([1]; first compound 0.08 µM)	relative viability ([1]; first compound 0.253 µM)	relative viability ([1]; first compound 0.8 µM)	relative viability ([1]; first compound 2.53 µM)	relative viability ([1]; first compound 8 µM)	relative viability ([2]; first compound 0.08 µM)	relative viability ([2]; first compound 0.253 µM)	relative viability ([2]; first compound 0.8 µM)	relative viability ([2]; first compound 2.53 µM)	relative viability ([2]; first compound 8 µM)	relative viability ([3]; first compound 0.08 µM)	relative viability ([3]; first compound 0.253 µM)	relative viability ([3]; first compound 0.8 µM)	relative viability ([3]; first compound 2.53 µM)	relative viability ([3]; first compound 8 µM)	relative viability ([4]; first compound 0.08 µM)	relative viability ([4]; first compound 0.253 µM)	relative viability ([4]; first compound 0.8 µM)	relative viability ([4]; first compound 2.53 µM)	relative viability ([4]; first compound 8 µM)
HOP-62	0.863	0.657	0.882	0.743	0.637	0.307	0.327	0.345	0.343	0.332	1.02	1.17	1.11	1	1.11	0.324	0.363	0.299	0.314	0.323
NCI-H3122	1.03	1.05	1.01	0.986	0.935	0.399	0.382	0.343	0.384	0.373	1.04	1.03	0.981	0.923	0.963	0.212	0.198	0.192	0.19	0.188
NCI-H1437	0.408	0.597	0.594	0.541	0.539	0.395	0.398	0.396	0.38	0.392	1.12	1.14	1.14	1.05	0.884	0.469	0.292	0.304	0.319	0.254
BEN	0.574	0.787	0.819	0.846	0.885	0.545	0.555	0.513	0.605	0.466	0.0601	0.0767	0.0749	0.0665	0.0571	0.534	0.744	0.818	0.688	0.95
NCI-H520	0.443	0.812	0.619	0.697	0.668	0.392	0.452	0.481	0.385	0.433		1.01	1.38	1.22	0.782	0.74	0.714	0.748	0.466	0.413
NCI-H2087	0.745	0.786	0.699	0.587	0.836	0.258	0.306	0.212	0.185	0.234	0.922	0.874	0.846	0.801	0.795	0.685		0.726	0.703	0.652
NCI-H2347	1	0.9		0.969	0.968	0.589	0.574	0.554	0.485	0.574	0.783	0.72	0.99	0.741	0.758	0.459	0.407	0.451	0.406	0.434
NCI-H838	0.603	1.11	0.679	0.817	1.05	0.263	0.276	0.263	0.283	0.29	1.08	1.06	1.04	0.641	0.406	0.259	0.246	0.266	0.227	0.204
LXF-289	0.985	0.977	1.02	0.965	0.944	0.22	0.185	0.2	0.224	0.213	0.914	0.956	0.891	0.92	0.778	0.866	0.943	0.925	0.933	0.852
LC-2-ad	1.06	0.987	0.981	0.947	0.871	0.504	0.545	0.427	0.434	0.462	0.376	0.435	0.444	0.257	0.243	0.287	0.306	0.306	0.26	0.272
NCI-H2085	1.08	0.985	1.06	1.1	1.02	0.835	0.849	0.85	0.698	0.621	1.12	1.07	1.2	1.11	0.999	0.918	0.825	1.09	0.783	0.653
